Source: ChEMBL document CHEMBL4765323, “Design, synthesis, and biological evaluation of novel miconazole analogues containing selenium as potent antifungal agents” (Eur J Med Chem, 2020)
Converted amounts (≈) assume the structure as drawn.

Experiments:
Type in all cases: functional
Candida albicans [1] = assay: Antifungal activity against Candida albicans ATCC SC5314 measured after 24 hrs by micro-broth dilution assay
[Candida] zeylanoides = Antifungal activity against Candida zeylanoides CMGCC2.3739 measured after 24 hrs by micro-broth dilution assay; conditions: Dujonia zeylanoides
Candida albicans [2] = assay: Antifungal activity against fluconazole-resistant Candida albicans strain 904 measured after 24 hrs by micro-broth dilution assay
Nakaseomyces glabratus = assay: Antifungal activity against clinical isolate Candida glabrata measured after 24 hrs by micro-broth dilution assay
Candida albicans [3] = assay: Antifungal activity against fluconazole-resistant Candida albicans 632 measured after 24 hrs by micro-broth dilution assay
Candida albicans [4] = assay: Antifungal activity against Candida albicans CPCC400616 measured after 24 hrs by micro-broth dilution assay
Candida albicans [5] = assay: Antifungal activity against fluconazole-resistant Candida albicans 17 measured after 24 hrs by micro-broth dilution assay
Aspergillus fumigatus = assay: Antifungal activity against Aspergillus fumigatus CGMCC 3.7795 measured after 72 hrs by micro-broth dilution assay
Candida parapsilosis = assay: Antifungal activity against Candida parapsilosis ATCC 22019 measured after 24 hrs by micro-broth dilution assay; conditions: Lodderomyces parapsilosis
Pichia kudriavzevii = assay: Antifungal activity against Candida krusei AS 2.1045 measured after 24 hrs by micro-broth dilution assay
Cryptococcus neoformans = assay: Antifungal activity against Cryptococcus neoformans CGMCC2.3161 measured after 72 hrs by micro-broth dilution assay
Candida albicans [6] = assay: Antifungal activity against Candida albicans 901 measured after 24 hrs by micro-broth dilution assay
Candida albicans [7] = assay: Antifungal activity against fluconazole-resistant Candida albicans CaR measured after 24 hrs by micro-broth dilution assay

Fc1ccc(C(Cn2ccnc2)[Se]Cc2ccccc2Cl)c(F)c1 (stereo unspecified)
MIC (Candida albicans [1]): 0.01 µg/mL (≈ 0.0243 µM) | MIC ([Candida] zeylanoides): 0.25 µg/mL (≈ 0.607 µM) | MIC (Candida albicans [2]): 0.5 µg/mL (≈ 1.21 µM) | MIC (Nakaseomyces glabratus): 1 µg/mL (≈ 2.43 µM) | MIC (Candida albicans [3]): 0.5 µg/mL (≈ 1.21 µM) | MIC (Candida albicans [4]): 0.25 µg/mL (≈ 0.607 µM) | MIC (Candida albicans [5]): 1 µg/mL (≈ 2.43 µM) | MIC (Aspergillus fumigatus): 2 µg/mL (≈ 4.86 µM) | MIC (Candida parapsilosis): 0.06 µg/mL (≈ 0.146 µM) | MIC (Pichia kudriavzevii): 0.25 µg/mL (≈ 0.607 µM) | MIC (Cryptococcus neoformans): 0.5 µg/mL (≈ 1.21 µM) | MIC (Candida albicans [6]): 1 µg/mL (≈ 2.43 µM) | MIC (Candida albicans [7]): 2 µg/mL (≈ 4.86 µM)

Fc1ccc(C(Cn2ccnc2)[Se]Cc2ccc(Br)cc2)c(F)c1 (stereo unspecified)
MIC (Candida albicans [1]): 0.13 µg/mL (≈ 0.285 µM) | MIC ([Candida] zeylanoides): 0.25 µg/mL (≈ 0.548 µM) | MIC (Candida albicans [2]): 2 µg/mL (≈ 4.38 µM) | MIC (Nakaseomyces glabratus): 2 µg/mL (≈ 4.38 µM) | MIC (Candida albicans [3]): 8 µg/mL (≈ 17.5 µM) | MIC (Candida albicans [4]): 0.25 µg/mL (≈ 0.548 µM) | MIC (Candida albicans [5]): 2 µg/mL (≈ 4.38 µM) | MIC (Aspergillus fumigatus): 1 µg/mL (≈ 2.19 µM) | MIC (Candida parapsilosis): 0.25 µg/mL (≈ 0.548 µM) | MIC (Pichia kudriavzevii): 1 µg/mL (≈ 2.19 µM) | MIC (Cryptococcus neoformans): 0.5 µg/mL (≈ 1.1 µM) | MIC (Candida albicans [6]): 2 µg/mL (≈ 4.38 µM) | MIC (Candida albicans [7]): 64 µg/mL (≈ 140 µM)

Clc1ccc(C(Cn2ccnc2)[Se]Cc2ccccc2)c(Cl)c1 (stereo unspecified)
MIC (Candida albicans [1]): 0.02 µg/mL (≈ 0.0488 µM) | MIC ([Candida] zeylanoides): 0.5 µg/mL (≈ 1.22 µM) | MIC (Candida albicans [2]): 0.5 µg/mL (≈ 1.22 µM) | MIC (Nakaseomyces glabratus): 0.5 µg/mL (≈ 1.22 µM) | MIC (Candida albicans [3]): 2 µg/mL (≈ 4.88 µM) | MIC (Candida albicans [4]): 0.06 µg/mL (≈ 0.146 µM) | MIC (Candida albicans [5]): 4 µg/mL (≈ 9.75 µM) | MIC (Aspergillus fumigatus): 0.5 µg/mL (≈ 1.22 µM) | MIC (Candida parapsilosis): 0.25 µg/mL (≈ 0.609 µM) | MIC (Pichia kudriavzevii): 0.5 µg/mL (≈ 1.22 µM) | MIC (Cryptococcus neoformans): 0.5 µg/mL (≈ 1.22 µM) | MIC (Candida albicans [6]): 1 µg/mL (≈ 2.44 µM) | MIC (Candida albicans [7]): 4 µg/mL (≈ 9.75 µM)

Fc1ccc(C(Cn2ccnc2)[Se]Cc2ccc(Cl)cc2)c(F)c1 (stereo unspecified)
MIC (Candida albicans [1]): 0.03 µg/mL (≈ 0.0729 µM) | MIC ([Candida] zeylanoides): 1 µg/mL (≈ 2.43 µM) | MIC (Candida albicans [2]): 2 µg/mL (≈ 4.86 µM) | MIC (Nakaseomyces glabratus): 1 µg/mL (≈ 2.43 µM) | MIC (Candida albicans [3]): 64 µg/mL (≈ 155 µM) | MIC (Candida albicans [4]): 0.5 µg/mL (≈ 1.21 µM) | MIC (Candida albicans [5]): 8 µg/mL (≈ 19.4 µM) | MIC (Aspergillus fumigatus): 1 µg/mL (≈ 2.43 µM) | MIC (Candida parapsilosis): 0.13 µg/mL (≈ 0.316 µM) | MIC (Pichia kudriavzevii): 0.5 µg/mL (≈ 1.21 µM) | MIC (Cryptococcus neoformans): 0.5 µg/mL (≈ 1.21 µM) | MIC (Candida albicans [6]): 8 µg/mL (≈ 19.4 µM) | MIC (Candida albicans [7]): 16 µg/mL (≈ 38.9 µM)

COc1ccc(C[Se]C(Cn2ccnc2)c2ccc(F)cc2F)cc1 (stereo unspecified)
MIC (Candida albicans [1]): 0.13 µg/mL (≈ 0.319 µM) | MIC ([Candida] zeylanoides): 2 µg/mL (≈ 4.91 µM) | MIC (Candida albicans [2]): 2 µg/mL (≈ 4.91 µM) | MIC (Nakaseomyces glabratus): 0.5 µg/mL (≈ 1.23 µM) | MIC (Candida albicans [3]): 8 µg/mL (≈ 19.6 µM) | MIC (Candida albicans [4]): 0.25 µg/mL (≈ 0.614 µM) | MIC (Candida albicans [5]): 8 µg/mL (≈ 19.6 µM) | MIC (Aspergillus fumigatus): 1 µg/mL (≈ 2.46 µM) | MIC (Candida parapsilosis): 0.25 µg/mL (≈ 0.614 µM) | MIC (Pichia kudriavzevii): 2 µg/mL (≈ 4.91 µM) | MIC (Cryptococcus neoformans): 0.5 µg/mL (≈ 1.23 µM) | MIC (Candida albicans [6]): 8 µg/mL (≈ 19.6 µM) | MIC (Candida albicans [7]): 8 µg/mL (≈ 19.6 µM)

COc1cc(C[Se]C(Cn2ccnc2)c2ccc(F)cc2F)cc(OC)c1 (stereo unspecified)
MIC (Candida albicans [1]): 0.13 µg/mL (≈ 0.297 µM) | MIC ([Candida] zeylanoides): 1 µg/mL (≈ 2.29 µM) | MIC (Candida albicans [2]): 4 µg/mL (≈ 9.15 µM) | MIC (Nakaseomyces glabratus): 0.5 µg/mL (≈ 1.14 µM) | MIC (Candida albicans [3]): 8 µg/mL (≈ 18.3 µM) | MIC (Candida albicans [4]): 0.5 µg/mL (≈ 1.14 µM) | MIC (Candida albicans [5]): 8 µg/mL (≈ 18.3 µM) | MIC (Aspergillus fumigatus): 8 µg/mL (≈ 18.3 µM) | MIC (Candida parapsilosis): 8 µg/mL (≈ 18.3 µM) | MIC (Pichia kudriavzevii): 8 µg/mL (≈ 18.3 µM) | MIC (Cryptococcus neoformans): 8 µg/mL (≈ 18.3 µM) | MIC (Candida albicans [6]): 2 µg/mL (≈ 4.57 µM) | MIC (Candida albicans [7]): 128 µg/mL (≈ 293 µM)

Cc1ccc(C[Se]C(Cn2ccnc2)c2ccc(F)cc2F)cc1C (stereo unspecified)
MIC (Candida albicans [1]): 0.13 µg/mL (≈ 0.321 µM) | MIC ([Candida] zeylanoides): 1 µg/mL (≈ 2.47 µM) | MIC (Candida albicans [2]): > 128 µg/mL | MIC (Nakaseomyces glabratus): 1 µg/mL (≈ 2.47 µM) | MIC (Candida albicans [3]): > 128 µg/mL | MIC (Candida albicans [4]): 0.5 µg/mL (≈ 1.23 µM) | MIC (Candida albicans [5]): 64 µg/mL (≈ 158 µM) | MIC (Aspergillus fumigatus): 2 µg/mL (≈ 4.93 µM) | MIC (Candida parapsilosis): 1 µg/mL (≈ 2.47 µM) | MIC (Pichia kudriavzevii): 8 µg/mL (≈ 19.7 µM) | MIC (Cryptococcus neoformans): 0.5 µg/mL (≈ 1.23 µM) | MIC (Candida albicans [6]): 128 µg/mL (≈ 316 µM) | MIC (Candida albicans [7]): 128 µg/mL (≈ 316 µM)

Fc1cccc(C[Se]C(Cn2ccnc2)c2ccc(Cl)cc2Cl)c1 (stereo unspecified)
MIC (Candida albicans [1]): 0.03 µg/mL (≈ 0.0701 µM) | MIC ([Candida] zeylanoides): 1 µg/mL (≈ 2.34 µM) | MIC (Candida albicans [2]): 0.25 µg/mL (≈ 0.584 µM) | MIC (Nakaseomyces glabratus): 0.5 µg/mL (≈ 1.17 µM) | MIC (Candida albicans [3]): 1 µg/mL (≈ 2.34 µM) | MIC (Candida albicans [4]): 0.03 µg/mL (≈ 0.0701 µM) | MIC (Candida albicans [5]): 0.5 µg/mL (≈ 1.17 µM) | MIC (Aspergillus fumigatus): 2 µg/mL (≈ 4.67 µM) | MIC (Candida parapsilosis): 0.02 µg/mL (≈ 0.0467 µM) | MIC (Pichia kudriavzevii): 2 µg/mL (≈ 4.67 µM) | MIC (Cryptococcus neoformans): 0.25 µg/mL (≈ 0.584 µM) | MIC (Candida albicans [6]): 0.25 µg/mL (≈ 0.584 µM) | MIC (Candida albicans [7]): 1 µg/mL (≈ 2.34 µM)

Fc1ccc(C[Se]C(Cn2ccnc2)c2ccc(F)cc2F)cc1 (stereo unspecified)
MIC (Candida albicans [1]): 0.03 µg/mL (≈ 0.0759 µM) | MIC ([Candida] zeylanoides): 1 µg/mL (≈ 2.53 µM) | MIC (Candida albicans [2]): 8 µg/mL (≈ 20.2 µM) | MIC (Nakaseomyces glabratus): 1 µg/mL (≈ 2.53 µM) | MIC (Candida albicans [3]): 32 µg/mL (≈ 81 µM) | MIC (Candida albicans [4]): 0.06 µg/mL (≈ 0.152 µM) | MIC (Candida albicans [5]): 32 µg/mL (≈ 81 µM) | MIC (Aspergillus fumigatus): 2 µg/mL (≈ 5.06 µM) | MIC (Candida parapsilosis): 0.25 µg/mL (≈ 0.632 µM) | MIC (Pichia kudriavzevii): 1 µg/mL (≈ 2.53 µM) | MIC (Cryptococcus neoformans): 0.5 µg/mL (≈ 1.26 µM) | MIC (Candida albicans [6]): 4 µg/mL (≈ 10.1 µM) | MIC (Candida albicans [7]): 8 µg/mL (≈ 20.2 µM)

COc1ccc(C[Se]C(Cn2ccnc2)c2ccc(Cl)cc2Cl)cc1 (stereo unspecified)
MIC (Candida albicans [1]): 0.13 µg/mL (≈ 0.295 µM) | MIC ([Candida] zeylanoides): 8 µg/mL (≈ 18.2 µM) | MIC (Candida albicans [2]): 128 µg/mL (≈ 291 µM) | MIC (Nakaseomyces glabratus): 0.5 µg/mL (≈ 1.14 µM) | MIC (Candida albicans [3]): 128 µg/mL (≈ 291 µM) | MIC (Candida albicans [4]): 0.13 µg/mL (≈ 0.295 µM) | MIC (Candida albicans [5]): 16 µg/mL (≈ 36.3 µM) | MIC (Aspergillus fumigatus): 1 µg/mL (≈ 2.27 µM) | MIC (Candida parapsilosis): 0.5 µg/mL (≈ 1.14 µM) | MIC (Pichia kudriavzevii): 8 µg/mL (≈ 18.2 µM) | MIC (Cryptococcus neoformans): 0.25 µg/mL (≈ 0.568 µM) | MIC (Candida albicans [6]): 16 µg/mL (≈ 36.3 µM) | MIC (Candida albicans [7]): 32 µg/mL (≈ 72.7 µM)

Clc1ccc(C[Se]C(Cn2ccnc2)c2ccc(Cl)cc2Cl)c(Cl)c1 (stereo unspecified)
MIC (Candida albicans [1]): 0.06 µg/mL (≈ 0.125 µM) | MIC ([Candida] zeylanoides): 2 µg/mL (≈ 4.17 µM) | MIC (Candida albicans [2]): 8 µg/mL (≈ 16.7 µM) | MIC (Nakaseomyces glabratus): 0.25 µg/mL (≈ 0.522 µM) | MIC (Candida albicans [3]): 64 µg/mL (≈ 134 µM) | MIC (Candida albicans [4]): 0.06 µg/mL (≈ 0.125 µM) | MIC (Candida albicans [5]): 16 µg/mL (≈ 33.4 µM) | MIC (Aspergillus fumigatus): 0.5 µg/mL (≈ 1.04 µM) | MIC (Candida parapsilosis): 2 µg/mL (≈ 4.17 µM) | MIC (Pichia kudriavzevii): 2 µg/mL (≈ 4.17 µM) | MIC (Cryptococcus neoformans): 0.5 µg/mL (≈ 1.04 µM) | MIC (Candida albicans [6]): 32 µg/mL (≈ 66.8 µM) | MIC (Candida albicans [7]): 128 µg/mL (≈ 267 µM)

Cc1ccc(C[Se]C(Cn2ccnc2)c2ccc(F)cc2F)cc1 (stereo unspecified)
MIC (Candida albicans [1]): 0.06 µg/mL (≈ 0.153 µM) | MIC ([Candida] zeylanoides): 0.5 µg/mL (≈ 1.28 µM) | MIC (Candida albicans [2]): 4 µg/mL (≈ 10.2 µM) | MIC (Nakaseomyces glabratus): 1 µg/mL (≈ 2.56 µM) | MIC (Candida albicans [3]): 16 µg/mL (≈ 40.9 µM) | MIC (Candida albicans [4]): 0.25 µg/mL (≈ 0.639 µM) | MIC (Candida albicans [5]): 2 µg/mL (≈ 5.11 µM) | MIC (Aspergillus fumigatus): 1 µg/mL (≈ 2.56 µM) | MIC (Candida parapsilosis): 0.25 µg/mL (≈ 0.639 µM) | MIC (Pichia kudriavzevii): 2 µg/mL (≈ 5.11 µM) | MIC (Cryptococcus neoformans): 0.5 µg/mL (≈ 1.28 µM) | MIC (Candida albicans [6]): 1 µg/mL (≈ 2.56 µM) | MIC (Candida albicans [7]): 16 µg/mL (≈ 40.9 µM)
